Measured values reported in patent US12662479B2 (Foghorn Therapeutics Inc., priority 2020, dated 2026).

What was measured:
HiBit-BRM fusion protein = target: T1, HiBit-BRM fusion protein (Homo sapiens, UniProt P51531); test: HiBiT-BRM cell-based degradation assay (Nano-Glo HiBiT Lytic Detection, 24 h); settings: HeLa cells expressing HiBiT-BRM; for DC50: read-out: BRM HiBit Degradation IC50; for BRM HiBit Degradation Maximum measured: top dose 30 μM
T1 construct: expressed in transfected cells
Method: (§1) Procedure: A stable HeLa cell line expressing HiBiT-BRM was generated. On day 0, 5000 cells were seeded in 40 μL of media into each well of 384-well cell culture plates. On day 1, cells were treated with 120 nL DMSO or 120 nL of 3-fold serially DMSO-diluted compounds (10 points in duplicate with 30 μM as final top dose). Subsequently plates were incubated for 24 h in a standard tissue culture incubator and equilibrated at room temperature for 15 minutes. Nano-Glo HiBiT Lytic Detection System (Promega N3050) reagent was freshly prepared and 20 ul was added to each well. Upon addition of this LgBit-containing reagent, the HiBiT and LgBiT proteins associate to form the luminescent NanoBiT luciferase. The plates were shaken for 10 minutes at room temperature and the bioluminescence read using an EnVision plate reader (PerkinElmer).
(§2) The degradation % was calculated using the following formula: % degradation=100%−100%×(LumSample−LumLC)/(LumHC−LumLC). DMSO treated cells are employed as High Control (HC) and 2 μM of a known BRM/BRG1 degrader standard treated cells are employed as Low Control (LC).

[1] = target: T2, HiBit-BRG1 fusion protein (Homo sapiens, UniProt P51532); test: HiBiT-BRG1 cell-based degradation assay (Nano-Glo HiBiT Lytic Detection, 24 h); settings: HeLa cells expressing HiBit-BRG1 and LgBit; for DC50: read-out: BRG1 HiBit Degradation IC50; for Dmax: HeLa, top dose 30 μM, read-out: BRG1 HiBit Degradation Maximum measured
T2 construct: expressed in transfected cells
T2 sequence (P51532 whole entry, the tested form may be a part): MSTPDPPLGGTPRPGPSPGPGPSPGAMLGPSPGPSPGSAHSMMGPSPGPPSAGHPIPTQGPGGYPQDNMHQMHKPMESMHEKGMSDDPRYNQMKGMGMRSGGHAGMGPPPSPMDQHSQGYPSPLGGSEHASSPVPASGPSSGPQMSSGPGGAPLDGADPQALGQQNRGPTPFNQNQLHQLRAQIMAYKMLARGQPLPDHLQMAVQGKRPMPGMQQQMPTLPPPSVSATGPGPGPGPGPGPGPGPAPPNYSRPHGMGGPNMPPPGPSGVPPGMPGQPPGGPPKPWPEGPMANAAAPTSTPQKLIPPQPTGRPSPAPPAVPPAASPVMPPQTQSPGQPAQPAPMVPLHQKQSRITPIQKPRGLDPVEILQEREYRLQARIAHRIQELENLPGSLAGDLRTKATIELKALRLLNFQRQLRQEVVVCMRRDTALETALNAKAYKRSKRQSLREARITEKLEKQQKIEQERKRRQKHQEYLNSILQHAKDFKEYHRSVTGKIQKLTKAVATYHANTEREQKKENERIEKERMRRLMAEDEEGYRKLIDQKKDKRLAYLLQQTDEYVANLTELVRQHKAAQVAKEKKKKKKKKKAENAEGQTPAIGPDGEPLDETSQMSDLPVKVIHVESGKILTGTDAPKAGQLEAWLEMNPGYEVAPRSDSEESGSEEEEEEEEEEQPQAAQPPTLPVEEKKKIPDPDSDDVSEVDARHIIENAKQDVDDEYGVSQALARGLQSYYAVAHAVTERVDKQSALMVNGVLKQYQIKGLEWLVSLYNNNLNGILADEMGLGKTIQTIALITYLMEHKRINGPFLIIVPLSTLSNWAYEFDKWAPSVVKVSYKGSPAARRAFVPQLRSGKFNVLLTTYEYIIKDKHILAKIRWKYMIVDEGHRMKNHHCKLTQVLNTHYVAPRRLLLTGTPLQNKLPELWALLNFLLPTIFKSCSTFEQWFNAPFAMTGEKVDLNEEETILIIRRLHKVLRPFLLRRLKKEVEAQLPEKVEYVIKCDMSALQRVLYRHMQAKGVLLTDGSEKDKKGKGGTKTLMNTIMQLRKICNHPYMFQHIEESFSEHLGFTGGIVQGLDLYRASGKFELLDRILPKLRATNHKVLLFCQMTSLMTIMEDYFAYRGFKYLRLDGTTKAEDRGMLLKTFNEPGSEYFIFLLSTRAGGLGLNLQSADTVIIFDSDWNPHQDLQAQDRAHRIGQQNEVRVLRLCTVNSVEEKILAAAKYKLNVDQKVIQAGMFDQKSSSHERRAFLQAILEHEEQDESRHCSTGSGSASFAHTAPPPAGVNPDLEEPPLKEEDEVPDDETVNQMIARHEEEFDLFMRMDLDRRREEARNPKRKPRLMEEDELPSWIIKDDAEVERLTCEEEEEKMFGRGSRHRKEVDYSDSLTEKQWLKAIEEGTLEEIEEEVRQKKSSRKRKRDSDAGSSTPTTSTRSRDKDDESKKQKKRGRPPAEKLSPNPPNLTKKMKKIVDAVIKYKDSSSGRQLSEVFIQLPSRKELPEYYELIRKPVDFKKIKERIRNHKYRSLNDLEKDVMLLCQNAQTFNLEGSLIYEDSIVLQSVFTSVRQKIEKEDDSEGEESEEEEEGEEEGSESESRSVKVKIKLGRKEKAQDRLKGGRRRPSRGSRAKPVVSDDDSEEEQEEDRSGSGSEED
Method: as §1, with “On day 1, cells were treated with 120 nL DMSO or 120 nL of 3-fold serially DMSO-diluted compounds (10 points in duplicate with 30 μM as final top dose). Subsequently plates were incubated for 24 h in a standard tissue culture incubator and equilibrated at room temperature for 15 minutes.” left out
For measurement of BRG1 degradation, a stable HeLa cell line expressing HiBit-BRG1 and LgBit was generated. The same protocol as above was then followed.
as §2

T1 sequence (P51531 whole entry, the tested form may be a part): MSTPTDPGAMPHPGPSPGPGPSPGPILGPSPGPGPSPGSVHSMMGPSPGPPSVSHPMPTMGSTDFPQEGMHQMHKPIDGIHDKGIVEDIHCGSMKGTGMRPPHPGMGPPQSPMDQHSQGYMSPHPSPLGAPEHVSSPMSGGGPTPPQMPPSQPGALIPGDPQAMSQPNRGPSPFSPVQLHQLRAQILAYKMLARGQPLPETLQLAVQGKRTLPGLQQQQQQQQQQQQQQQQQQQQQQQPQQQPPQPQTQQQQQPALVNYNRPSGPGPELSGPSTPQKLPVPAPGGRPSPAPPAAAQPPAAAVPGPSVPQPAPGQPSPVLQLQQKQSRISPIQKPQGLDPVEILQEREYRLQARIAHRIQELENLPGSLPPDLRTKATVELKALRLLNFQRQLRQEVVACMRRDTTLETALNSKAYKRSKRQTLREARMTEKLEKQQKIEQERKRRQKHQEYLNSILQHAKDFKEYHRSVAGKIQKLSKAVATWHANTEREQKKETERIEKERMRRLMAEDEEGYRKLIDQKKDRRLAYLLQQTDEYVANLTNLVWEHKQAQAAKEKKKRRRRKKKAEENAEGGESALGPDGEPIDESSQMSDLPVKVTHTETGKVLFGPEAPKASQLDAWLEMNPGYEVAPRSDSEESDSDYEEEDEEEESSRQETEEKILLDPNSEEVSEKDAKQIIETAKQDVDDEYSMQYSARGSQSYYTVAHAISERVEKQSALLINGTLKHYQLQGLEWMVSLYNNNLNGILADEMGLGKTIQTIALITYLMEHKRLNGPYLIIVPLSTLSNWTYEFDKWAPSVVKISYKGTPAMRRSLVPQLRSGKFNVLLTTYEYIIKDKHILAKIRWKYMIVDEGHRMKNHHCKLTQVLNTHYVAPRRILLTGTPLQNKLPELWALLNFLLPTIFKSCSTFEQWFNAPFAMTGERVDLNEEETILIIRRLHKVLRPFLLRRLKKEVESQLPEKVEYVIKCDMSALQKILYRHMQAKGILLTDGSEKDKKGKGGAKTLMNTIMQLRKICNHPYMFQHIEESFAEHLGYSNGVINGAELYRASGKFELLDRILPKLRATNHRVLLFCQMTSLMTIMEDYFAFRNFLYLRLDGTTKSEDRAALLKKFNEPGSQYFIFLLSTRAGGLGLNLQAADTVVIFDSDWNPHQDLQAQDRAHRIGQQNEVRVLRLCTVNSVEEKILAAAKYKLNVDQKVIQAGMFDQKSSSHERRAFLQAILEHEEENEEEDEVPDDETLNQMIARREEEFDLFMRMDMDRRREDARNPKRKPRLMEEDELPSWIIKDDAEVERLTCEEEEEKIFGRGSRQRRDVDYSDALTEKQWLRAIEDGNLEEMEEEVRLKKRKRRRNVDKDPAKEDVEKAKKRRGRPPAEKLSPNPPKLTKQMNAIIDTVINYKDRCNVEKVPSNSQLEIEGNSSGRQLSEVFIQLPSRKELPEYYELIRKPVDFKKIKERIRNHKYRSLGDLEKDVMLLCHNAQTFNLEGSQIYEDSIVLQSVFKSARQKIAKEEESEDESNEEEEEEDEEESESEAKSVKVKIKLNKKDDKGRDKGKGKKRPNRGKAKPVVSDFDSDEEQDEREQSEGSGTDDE

SMILES	DC50 (HiBit-BRM fusion protein)	BRM HiBit Degradation Maximum measured (HiBit-BRM fusion protein)	DC50 [1]	Dmax [1]
Cc1ncsc1-c1ccc(CNC(=O)[C@@H]2C[C@@H](O)CN2C(=O)[C@@H](NC(=O)CCOCCOCCC(=O)NCc2cccc(-c3cccc(-c4csc(NC(=O)CNC(=O)c5ccn(S(C)(=O)=O)c5)n4)c3)c2)C(C)(C)C)cc1 [Compound 1, N-(2-((4-(3′-((S)-14-((2S,4R)-4-hydroxy-2-((4-(4-methylthiazol-5-yl)benzyl)carbamoyl)pyrrolidine-1-carbonyl)-15,15-dimethyl-3,12-dioxo-6,9-dioxa-2,13-diazahexadecyl)-[1,1′-biphenyl]-3-yl)thiazol-2-yl)amino)-2-oxoethyl)-1-(methylsulfonyl)-1H-pyrrole-3-carboxamide]	0.1 to 1 µM	A (‘A’ = Maximum degradation >75%)	0.1 to 1 µM	> 75%
CS(=O)(=O)n1ccc(C(=O)NCC(=O)Nc2nc(-c3cccc(-c4ccn(CC(=O)NCCCCCNc5cccc6c5C(=O)N(C5CCC(=O)NC5=O)C6=O)n4)c3)cs2)c1 (stereo not shown) [Compound 2, N-[2-[[4-[3-[1-[2-[5-[[2-(2,6-dioxo-3-piperidyl)-1,3-dioxoisoindolin-4-yl]amino]pentylamino]-2-oxo-ethyl]pyrazol-3-yl]phenyl]thiazol-2-yl]amino]-2-oxo-ethyl]-1-methylsulfonylpyrrole-3-carboxamide]	> 10 µM	C (‘C’ = Maximum degradation <50%)	> 10 µM	< 50%
CS(=O)(=O)n1ccc(C(=O)NCC(=O)Nc2nc(-c3cccc(-c4ccn(CC(=O)NCCOCCOCCNc5cccc6c5C(=O)N(C5CCC(=O)NC5=O)C6=O)n4)c3)cs2)c1 (stereo not shown) [Compound 3, N-[2-[[4-[3-[1-[2-[2-[2-[2-[[2-(2,6-dioxo-3-piperidyl)-1,3-dioxoisoindolin-4-yl]amino]ethoxy]ethoxy]ethylamino]-2-oxo-ethyl]pyrazol-3-yl]phenyl]thiazol-2-yl]amino]-2-oxo-ethyl]-1-methylsulfonyl-pyrrole-3-carboxamide]	> 10 µM	C (‘C’ = Maximum degradation <50%)	> 10 µM	< 50%
CS(=O)(=O)n1ccc(C(=O)NCC(=O)Nc2nc(-c3cccc(-c4ccn(CC(=O)N5CCC(C6CCN(C(=O)COc7cccc8c7C(=O)N(C7CCC(=O)NC7=O)C8=O)CC6)CC5)n4)c3)cs2)c1 (stereo not shown) [Compound 4, N-[2-[[4-[3-[1-[2-[4-[1-[2-[2-(2,6-dioxo-3-piperidyl)-1,3-dioxoisoindolin-4-yl]oxyacetyl]-4-piperidyl]-1-piperidyl]-2-oxo-ethyl]pyrazol-3-yl]phenyl]thiazol-2-yl]amino]-2-oxo-ethyl]-1-methylsulfonyl-pyrrole-3-carboxamide]	> 10 µM	C (‘C’ = Maximum degradation <50%)	> 10 µM	< 50%
CS(=O)(=O)n1ccc(C(=O)NCC(=O)Nc2nc(-c3cccc(-c4ccn(CC(=O)NCCCCCCCCNC(=O)COc5cccc6c5C(=O)N(C5CCC(=O)NC5=O)C6=O)n4)c3)cs2)c1 (stereo not shown) [Compound 5, N-[2-[[4-[3-[1-[2-[8-[[2-[2-(2,6-dioxo-3-piperidyl)-1,3-dioxoisoindolin-4-yl]oxyacetyl]amino]octylamino]-2-oxo-ethyl]pyrazol-3-yl]phenyl]thiazol-2-yl]amino]-2-oxo-ethyl]-1-methylsulfonyl-pyrrole-3-carboxamide]	> 10 µM	C (‘C’ = Maximum degradation <50%)	> 10 µM	< 50%
CC(C)(C(=O)NCCOCCOCCNc1cccc2c1C(=O)N(C1CCC(=O)NC1=O)C2=O)n1ccc(-c2cccc(-c3csc(NC(=O)CNC(=O)c4ccn(S(C)(=O)=O)c4)n3)c2)n1 (stereo not shown) [Compound 6, N-(2-((4-(3-(1-(1-((2-(2-(2-((2-(2,6-dioxopiperidin-3-yl)-1,3-dioxoisoindolin-4-yl)amino)ethoxy)ethoxy)ethyl)amino)-2-methyl-1-oxopropan-2-yl)-1H-pyrazol-3-yl)phenyl)thiazol-2-yl)amino)-2-oxoethyl)-1-(methylsulfonyl)-1H-pyrrole-3-carboxamide]	> 10 µM	C (‘C’ = Maximum degradation <50%)	> 10 µM	< 50%
CC(C)(C(=O)NCCCCCNc1cccc2c1C(=O)N(C1CCC(=O)NC1=O)C2=O)n1ccc(-c2cccc(-c3csc(NC(=O)CNC(=O)c4ccn(S(C)(=O)=O)c4)n3)c2)n1 (stereo not shown) [Compound 7, N-[2-[[4-[3-[1-[2-[5-[[2-(2,6-dioxo-3-piperidyl)-1,3-dioxo-isoindolin-4-yl]amino]pentylamino]-1,1-dimethyl-2-oxo-ethyl]pyrazol-3-yl]phenyl]thiazol-2-yl]amino]-2-oxo-ethyl]-1-methylsulfonyl-pyrrole-3-carboxamide]	> 10 µM	C (‘C’ = Maximum degradation <50%)	> 10 µM	< 50%
CC(C)(C(=O)NCCCCCCCCNC(=O)COc1cccc2c1C(=O)N(C1CCC(=O)NC1=O)C2=O)n1ccc(-c2cccc(-c3csc(NC(=O)CNC(=O)c4ccn(S(C)(=O)=O)c4)n3)c2)n1 (stereo not shown) [Compound 8, N-(2-((4-(3-(1-(1-((8-(2-((2-(2,6-dioxopiperidin-3-yl)-1,3-dioxoisoindolin-4-yl)oxy)acetamido)octyl)amino)-2-methyl-1-oxopropan-2-yl)-1H-pyrazol-3-yl)phenyl)thiazol-2-yl)amino)-2-oxoethyl)-1-(methylsulfonyl)-1H-pyrrole-3-carboxamide]	0.1 to 1 µM	B (‘B’ = Maximum degradation ≥50% and ≤75%)	0.1 to 1 µM	50 to 75%
CN(CC(=O)NCCOCCOCCNc1cccc2c1C(=O)N(C1CCC(=O)NC1=O)C2=O)c1cc(-c2cccc(-c3csc(NC(=O)CNC(=O)c4ccn(S(C)(=O)=O)c4)n3)c2)ccn1 (stereo not shown) [Compound 9, N-(2-((4-(3-(2-((2-((2-(2-(2-((2-(2,6-dioxopiperidin-3-yl)-1,3-dioxoisoindolin-4-yl)amino)ethoxy)ethoxy)ethyl)amino)-2-oxoethyl)(methyl)amino)pyridin-4-yl)phenyl)thiazol-2-yl)amino)-2-oxoethyl)-1-(methylsulfonyl)-1H-pyrrole-3-carboxamide]	> 10 µM	C (‘C’ = Maximum degradation <50%)	> 10 µM	< 50%

The remaining lines, values ahead:

DC50 (HiBit-BRM fusion protein)	BRM HiBit Degradation Maximum measured (HiBit-BRM fusion protein)	DC50 [1]	Dmax [1]	SMILES
> 10 µM	C (‘C’ = Maximum degradation <50%)	> 10 µM	< 50%	CC(C)(C(=O)N1CCC(C2CCN(C(=O)COc3cccc4c3C(=O)N(C3CCC(=O)NC3=O)C4=O)CC2)CC1)n1ccc(-c2cccc(-c3csc(NC(=O)CNC(=O)c4ccn(S(C)(=O)=O)c4)n3)c2)n1 (stereo not shown) [Compound 10, N-[2-[[4-[3-[1-[2-[4-[1-[2-[2-(2,6-dioxo-3-piperidyl)-1,3-dioxo-isoindolin-4-yl]oxyacetyl]-4-piperidyl]-1-piperidyl]-1,1-dimethyl-2-oxo-ethyl]pyrazol-3-yl]phenyl]thiazol-2-yl]amino]-2-oxo-ethyl]-1-methylsulfonylpyrrole-3-carboxamide]
> 10 µM	C (‘C’ = Maximum degradation <50%)	1 to 10 µM	50 to 75%	CS(=O)(=O)n1ccc(C(=O)NCC(=O)Nc2nc(-c3cccc(-c4ccnc(C5(C(=O)NCCOCCOCCNc6cccc7c6C(=O)N(C6CCC(=O)NC6=O)C7=O)CC5)c4)c3)cs2)c1 (stereo not shown) [Compound 11, N-[2-[[4-[3-[2-[1-[2-[2-[2-[[2-(2,6-dioxo-3-piperidyl)-1,3-dioxo-isoindolin-4-yl]amino]ethoxy]ethoxy]ethylcarbamoyl]cyclopropyl]-4-pyridyl]phenyl]thiazol-2-yl]amino]-2-oxo-ethyl]-1-methylsulfonylpyrrole-3-carboxamide]
> 10 µM	C (‘C’ = Maximum degradation <50%)	0.1 to 1 µM	> 75%	CS(=O)(=O)n1ccc(C(=O)NCC(=O)Nc2nc(-c3cccc(-c4ccnc(C5(C(=O)NCCCCCNc6cccc7c6C(=O)N(C6CCC(=O)NC6=O)C7=O)CC5)c4)c3)cs2)c1 (stereo not shown) [Compound 12, N-(2-((4-(3-(2-(1-((5-((2-(2,6-dioxopiperidin-3-yl)-1,3-dioxoisoindolin-4-yl)amino)pentyl)carbamoyl)cyclopropyl)-pyridin-4-yl)phenyl)thiazol-2-yl)amino)-2-oxoethyl)-1-(methylsulfonyl)-1H-pyrrole-3-carboxamide]
			> 75%	Cc1ncsc1-c1ccc(CNC(=O)[C@@H]2C[C@@H](O)CN2C(=O)[C@@H](NC(=O)CCCCCCCCCCCC(=O)NCc2cccc(-c3cccc(-c4csc(NC(=O)CNC(=O)c5ccn(S(C)(=O)=O)c5)n4)c3)c2)C(C)(C)C)cc1 [Compound 114]
